Test results from patent publication US20230085307A1, “PYRIDAZINONE COMPOUND AND HERBICIDE” (NISSAN CHEMICAL CORPORATION, priority 2019, published 2023).

Columns and labels:
windgrass [1] = experiment: Test Example 5: herbicidal effect by foliage application, plastic box (Table 20, symbol L); format: in vivo, windgrass (Apera spica-venti); details: foliage application, 320 g/ha
In short: (§1)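 Post-emergence foliar test in sterilized diluvial soil. Compound applied as water-diluted emulsion at a predetermined rate to 14-day-old plants; evaluation at three weeks.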

wild oat [2] = experiment: Test Example 5: herbicidal effect by foliage application, plastic box (Table 20, symbol I); format: in vivo, wild oat (Avena fatua); details: foliage application, 320 g/ha
In short: as §1

Italian ryegrass [3] = experiment: Test Example 5: herbicidal effect by foliage application, plastic box (Table 20, symbol K); format: in vivo, Italian ryegrass (Lolium multiflorum); details: foliage application, 320 g/ha
In short: as §1

persian speedwell [4] = experiment: Test Example 4: herbicidal effect by soil treatment (Table 19, symbol R); format: in vivo, Persian speedwell (Veronica persica); details: amount of applied herbicide 320 g/ha
In short: (§2)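 Emulsion of test compound, water-diluted to predetermined amount, sprayed on soil after sowing (seed depth ~1.5 cm, sterilized diluvial soil). Greenhouse, 25–30° C. Effect graded at three weeks post-spray.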

green foxtail [5] = experiment: Test Example 5: herbicidal effect by foliage application, plastic box (Table 20, symbol G); format: in vivo, green foxtail (Setaria viridis); details: foliage application, 320 g/ha
In short: as §1

lambsquarters [6] = experiment: Test Example 5: herbicidal effect by foliage application, plastic box (Table 20, symbol O); format: in vivo, lambsquarters (Chenopodium album); details: foliage application, 320 g/ha
In short: as §1

southern crabgrass [7] = experiment: Test Example 5: herbicidal effect by foliage application, plastic box (Table 20, symbol F); format: in vivo, southern crabgrass (Digitaria ciliaris); details: foliage application, 320 g/ha
In short: as §1

southern crabgrass [8] = experiment: Test Example 4: herbicidal effect by soil treatment (Table 19, symbol F); format: in vivo, southern crabgrass (Digitaria ciliaris); details: amount of applied herbicide 320 g/ha
In short: as §2

wild oat [9] = experiment: Test Example 4: herbicidal effect by soil treatment (Table 19, symbol I); format: in vivo, wild oat (Avena fatua); details: amount of applied herbicide 320 g/ha
In short: as §2

velvetleaf [10] = experiment: Test Example 5: herbicidal effect by foliage application, plastic box (Table 20, symbol M); format: in vivo, velvetleaf (Abutilon theophrasti); details: foliage application, 320 g/ha
In short: as §1

barnyard grass [11] = experiment: Test Example 4: herbicidal effect by soil treatment (Table 19, symbol H); format: in vivo, barnyard grass (Echinochloa crus-galli); details: amount of applied herbicide 320 g/ha
In short: as §2

rice flat sedge = experiment: Test Example 3: herbicidal effect by foliage application, Wagner pot (Table 18, symbol E); format: in vivo, rice flat sedge (Cyperus iria); details: amount of applied herbicide 320 g/ha
In short: (§3)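 Plants were sown in alluvial soil held under 0.1–0.5 cm standing water and grown 14 days in a greenhouse at 25–30 °C. An emulsifiable formulation, water-diluted to the set dose, was then sprayed onto the foliage, and effects were scored three weeks later using previously defined criteria.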

false cleavers = experiment: Test Example 4: herbicidal effect by soil treatment (Table 19, symbol Q); format: in vivo, false cleavers (Galium spurium); details: amount of applied herbicide 320 g/ha
In short: as §2

Chinese sprangletop = experiment: Test Example 3: herbicidal effect by foliage application, Wagner pot (Table 18, symbol D); format: in vivo, chinese sprangletop (Leptochloa chinensis); details: amount of applied herbicide 320 g/ha
In short: as §3

redroot pigweed [12] = experiment: Test Example 4: herbicidal effect by soil treatment (Table 19, symbol N); format: in vivo, redroot pigweed (Amaranthus retroflexus); details: amount of applied herbicide 320 g/ha
In short: as §2

Italian ryegrass [13] = experiment: Test Example 4: herbicidal effect by soil treatment (Table 19, symbol K); format: in vivo, Italian ryegrass (Lolium multiflorum); details: amount of applied herbicide 320 g/ha
In short: as §2

chickweed [14] = experiment: Test Example 5: herbicidal effect by foliage application, plastic box (Table 20, symbol P); format: in vivo, common chickweed (Stellaria media); details: foliage application, 320 g/ha
In short: as §1

velvetleaf [15] = experiment: Test Example 4: herbicidal effect by soil treatment (Table 19, symbol M); format: in vivo, velvetleaf (Abutilon theophrasti); details: amount of applied herbicide 320 g/ha
In short: as §2

persian speedwell [16] = experiment: Test Example 5: herbicidal effect by foliage application, plastic box (Table 20, symbol R); format: in vivo, Persian speedwell (Veronica persica); details: foliage application, 320 g/ha
In short: as §1

redroot pigweed [17] = experiment: Test Example 5: herbicidal effect by foliage application, plastic box (Table 20, symbol N); format: in vivo, redroot pigweed (Amaranthus retroflexus); details: foliage application, 320 g/ha
In short: as §1

windgrass [18] = experiment: Test Example 4: herbicidal effect by soil treatment (Table 19, symbol L); format: in vivo, windgrass (Apera spica-venti); details: amount of applied herbicide 320 g/ha
In short: as §2

blackgrass [19] = experiment: Test Example 5: herbicidal effect by foliage application, plastic box (Table 20, symbol J); format: in vivo, blackgrass (Alopecurus myosuroides); details: foliage application, 320 g/ha
In short: as §1

green foxtail [20] = experiment: Test Example 4: herbicidal effect by soil treatment (Table 19, symbol G); format: in vivo, green foxtail (Setaria viridis); details: amount of applied herbicide 320 g/ha
In short: as §2

chickweed [21] = experiment: Test Example 4: herbicidal effect by soil treatment (Table 19, symbol P); format: in vivo, common chickweed (Stellaria media); details: amount of applied herbicide 320 g/ha
In short: as §2

barnyard grass [22] = experiment: Test Example 5: herbicidal effect by foliage application, plastic box (Table 20, symbol H); format: in vivo, barnyard grass (Echinochloa crus-galli); details: foliage application, 320 g/ha
In short: as §1

blackgrass [23] = experiment: Test Example 4: herbicidal effect by soil treatment (Table 19, symbol J); format: in vivo, blackgrass (Alopecurus myosuroides); details: amount of applied herbicide 320 g/ha
In short: as §2

barnyard grass [24] = experiment: Test Example 3: herbicidal effect by foliage application, Wagner pot (Table 18, symbol H); format: in vivo, barnyard grass (Echinochloa crus-galli); details: amount of applied herbicide 320 g/ha
In short: as §3

lambsquarters [25] = experiment: Test Example 4: herbicidal effect by soil treatment (Table 19, symbol O); format: in vivo, lambsquarters (Chenopodium album); details: amount of applied herbicide 320 g/ha
In short: as §2

[26] = evaluated 3 weeks after application

Cc1nn(C)c(=O)c(-c2c(-c3ccc(Cl)s3)oc3ccc(F)cc23)c1O [9-047]
L (windgrass) herbicidal effect grade (windgrass [1]; [26]): 0 (Herbicidal rate of 5% or less (almost no effect))
I (wild oat) herbicidal effect grade (wild oat [2]; [26]): 1 (Herbicidal rate of 5% or more and less than 20%)
K (Italian ryegrass) herbicidal effect grade (Italian ryegrass [3]; [26]): 4 (Herbicidal rate of 70% or more and less than 90%)
R: persian speedwell, herbicidal effect grade (persian speedwell [4]): 1 (Herbicidal rate of 5% or more and less than 20%)
G (green foxtail) herbicidal effect grade (green foxtail [5]; [26]): 2 (Herbicidal rate of 20% or more and less than 40%)
O (lambsquarters) herbicidal effect grade (lambsquarters [6]; [26]): 1 (Herbicidal rate of 5% or more and less than 20%)
F (southern crabgrass) herbicidal effect grade (southern crabgrass [7]; [26]): 3 (Herbicidal rate of 40% or more and less than 70%)
F: southern crabgrass, herbicidal effect grade (southern crabgrass [8]): 0 (Herbicidal rate of 5% or less (almost no effect))
I: wild oat, herbicidal effect grade (wild oat [9]): 0 (Herbicidal rate of 5% or less (almost no effect))
M (velvetleaf) herbicidal effect grade (velvetleaf [10]; [26]): 2 (Herbicidal rate of 20% or more and less than 40%)
H: barnyard grass, herbicidal effect grade (barnyard grass [11]): 0 (Herbicidal rate of 5% or less (almost no effect))
Herbicidal effect on E (rice flat sedge), foliage application (rice flat sedge): 3 (Herbicidal rate of 40% or more and less than 70%)
Q: false cleavers, herbicidal effect grade (false cleavers): 0 (Herbicidal rate of 5% or less (almost no effect))
Herbicidal effect on D (Chinese sprangletop), foliage application (Chinese sprangletop): 0 (Herbicidal rate of 5% or less (almost no effect))
N: redroot pigweed, herbicidal effect grade (redroot pigweed [12]): 3 (Herbicidal rate of 40% or more and less than 70%)
K: Italian ryegrass, herbicidal effect grade (Italian ryegrass [13]): 4 (Herbicidal rate of 70% or more and less than 90%)
P (chickweed) herbicidal effect grade (chickweed [14]; [26]): 5 (Herbicidal rate of 90% or more (almost completely withered))
M: velvetleaf, herbicidal effect grade (velvetleaf [15]): 0 (Herbicidal rate of 5% or less (almost no effect))
R (persian speedwell) herbicidal effect grade (persian speedwell [16]; [26]): 4 (Herbicidal rate of 70% or more and less than 90%)
N (redroot pigweed) herbicidal effect grade (redroot pigweed [17]; [26]): 3 (Herbicidal rate of 40% or more and less than 70%)
L: windgrass, herbicidal effect grade (windgrass [18]): 0 (Herbicidal rate of 5% or less (almost no effect))
J (blackgrass) herbicidal effect grade (blackgrass [19]; [26]): 0 (Herbicidal rate of 5% or less (almost no effect))
G: green foxtail, herbicidal effect grade (green foxtail [20]): 0 (Herbicidal rate of 5% or less (almost no effect))
P: chickweed, herbicidal effect grade (chickweed [21]): 0 (Herbicidal rate of 5% or less (almost no effect))
H (barnyard grass) herbicidal effect grade (barnyard grass [22]; [26]): 3 (Herbicidal rate of 40% or more and less than 70%)
J: blackgrass, herbicidal effect grade (blackgrass [23]): 0 (Herbicidal rate of 5% or less (almost no effect))
Herbicidal effect on H (barnyard grass), foliage application (barnyard grass [24]): 2 (Herbicidal rate of 20% or more and less than 40%)
O: lambsquarters, herbicidal effect grade (lambsquarters [25]): 0 (Herbicidal rate of 5% or less (almost no effect))

Cc1nn(C)c(=O)c(-c2c(-c3ccc(SCC#N)cc3)sc3ccc(F)cc23)c1O [2-423]
L: windgrass, herbicidal effect grade (windgrass [1]; three weeks after application): 5 (Herbicidal rate of 90% or more (almost completely withered))
I: wild oat, herbicidal effect grade (wild oat [2]; three weeks after application): 5 (Herbicidal rate of 90% or more (almost completely withered))
K: Italian ryegrass, herbicidal effect grade (Italian ryegrass [3]; three weeks after application): 5 (Herbicidal rate of 90% or more (almost completely withered))
herbicidal effect, R: persian speedwell (persian speedwell [4]): 4 (Herbicidal rate of 70% or more and less than 90%)
G: green foxtail, herbicidal effect grade (green foxtail [5]; three weeks after application): 5 (Herbicidal rate of 90% or more (almost completely withered))
O: lambsquarters, herbicidal effect grade (lambsquarters [6]; three weeks after application): 5 (Herbicidal rate of 90% or more (almost completely withered))
F: southern crabgrass, herbicidal effect grade (southern crabgrass [7]; three weeks after application): 0 (Herbicidal rate of 5% or less (almost no effect))
herbicidal effect, F: southern crabgrass (southern crabgrass [8]): 0 (Herbicidal rate of 5% or less (almost no effect))
herbicidal effect, I: wild oat (wild oat [9]): 0 (Herbicidal rate of 5% or less (almost no effect))
M: velvetleaf, herbicidal effect grade (velvetleaf [10]; three weeks after application): 5 (Herbicidal rate of 90% or more (almost completely withered))
herbicidal effect, H: barnyard grass (barnyard grass [11]): 1 (Herbicidal rate of 5% or more and less than 20%)
herbicidal effect, Q: false cleavers (false cleavers): 0 (Herbicidal rate of 5% or less (almost no effect))
herbicidal effect, N: redroot pigweed (redroot pigweed [12]): 5 (Herbicidal rate of 90% or more (almost completely withered))
herbicidal effect, K: Italian ryegrass (Italian ryegrass [13]): 3 (Herbicidal rate of 40% or more and less than 70%)
P: chickweed, herbicidal effect grade (chickweed [14]; three weeks after application): 5 (Herbicidal rate of 90% or more (almost completely withered))
herbicidal effect, M: velvetleaf (velvetleaf [15]): 1 (Herbicidal rate of 5% or more and less than 20%)
R: persian speedwell, herbicidal effect grade (persian speedwell [16]; three weeks after application): 5 (Herbicidal rate of 90% or more (almost completely withered))
N: redroot pigweed, herbicidal effect grade (redroot pigweed [17]; three weeks after application): 5 (Herbicidal rate of 90% or more (almost completely withered))
herbicidal effect, L: windgrass (windgrass [18]): 1 (Herbicidal rate of 5% or more and less than 20%)
J: blackgrass, herbicidal effect grade (blackgrass [19]; three weeks after application): 4 (Herbicidal rate of 70% or more and less than 90%)
herbicidal effect, G: green foxtail (green foxtail [20]): 4 (Herbicidal rate of 70% or more and less than 90%)
herbicidal effect, P: chickweed (chickweed [21]): 5 (Herbicidal rate of 90% or more (almost completely withered))
H: barnyard grass, herbicidal effect grade (barnyard grass [22]; three weeks after application): 5 (Herbicidal rate of 90% or more (almost completely withered))
herbicidal effect, J: blackgrass (blackgrass [23]): 0 (Herbicidal rate of 5% or less (almost no effect))
herbicidal effect, O: lambsquarters (lambsquarters [25]): 4 (Herbicidal rate of 70% or more and less than 90%)
